# Data taken from ChEMBL document CHEMBL1201862, “PubChem BioAssay data set” (2004).
# Activity calls are given as the source filed them.
# Key:
# [1] = target: Benomyl/methotrexate resistance protein (Candida albicans, UniProt P28873); assay: CaMdr1 efflux pump inhibitor potency, dose response, singleplex, Cherry Pick1 hits (AID 588608); format: functional
# [2] = target: Multidrug resistance protein CDR1 (Candida albicans, UniProt P43071); assay: CaCDR1 efflux pump inhibitors in yeast, dose response, S. cerevisiae AD1-8u, singleplex, Cherry Pick1 hits (AID 588606); format: functional
# Chain of Multidrug resistance protein CDR1 (P43071 whole entry, looked up): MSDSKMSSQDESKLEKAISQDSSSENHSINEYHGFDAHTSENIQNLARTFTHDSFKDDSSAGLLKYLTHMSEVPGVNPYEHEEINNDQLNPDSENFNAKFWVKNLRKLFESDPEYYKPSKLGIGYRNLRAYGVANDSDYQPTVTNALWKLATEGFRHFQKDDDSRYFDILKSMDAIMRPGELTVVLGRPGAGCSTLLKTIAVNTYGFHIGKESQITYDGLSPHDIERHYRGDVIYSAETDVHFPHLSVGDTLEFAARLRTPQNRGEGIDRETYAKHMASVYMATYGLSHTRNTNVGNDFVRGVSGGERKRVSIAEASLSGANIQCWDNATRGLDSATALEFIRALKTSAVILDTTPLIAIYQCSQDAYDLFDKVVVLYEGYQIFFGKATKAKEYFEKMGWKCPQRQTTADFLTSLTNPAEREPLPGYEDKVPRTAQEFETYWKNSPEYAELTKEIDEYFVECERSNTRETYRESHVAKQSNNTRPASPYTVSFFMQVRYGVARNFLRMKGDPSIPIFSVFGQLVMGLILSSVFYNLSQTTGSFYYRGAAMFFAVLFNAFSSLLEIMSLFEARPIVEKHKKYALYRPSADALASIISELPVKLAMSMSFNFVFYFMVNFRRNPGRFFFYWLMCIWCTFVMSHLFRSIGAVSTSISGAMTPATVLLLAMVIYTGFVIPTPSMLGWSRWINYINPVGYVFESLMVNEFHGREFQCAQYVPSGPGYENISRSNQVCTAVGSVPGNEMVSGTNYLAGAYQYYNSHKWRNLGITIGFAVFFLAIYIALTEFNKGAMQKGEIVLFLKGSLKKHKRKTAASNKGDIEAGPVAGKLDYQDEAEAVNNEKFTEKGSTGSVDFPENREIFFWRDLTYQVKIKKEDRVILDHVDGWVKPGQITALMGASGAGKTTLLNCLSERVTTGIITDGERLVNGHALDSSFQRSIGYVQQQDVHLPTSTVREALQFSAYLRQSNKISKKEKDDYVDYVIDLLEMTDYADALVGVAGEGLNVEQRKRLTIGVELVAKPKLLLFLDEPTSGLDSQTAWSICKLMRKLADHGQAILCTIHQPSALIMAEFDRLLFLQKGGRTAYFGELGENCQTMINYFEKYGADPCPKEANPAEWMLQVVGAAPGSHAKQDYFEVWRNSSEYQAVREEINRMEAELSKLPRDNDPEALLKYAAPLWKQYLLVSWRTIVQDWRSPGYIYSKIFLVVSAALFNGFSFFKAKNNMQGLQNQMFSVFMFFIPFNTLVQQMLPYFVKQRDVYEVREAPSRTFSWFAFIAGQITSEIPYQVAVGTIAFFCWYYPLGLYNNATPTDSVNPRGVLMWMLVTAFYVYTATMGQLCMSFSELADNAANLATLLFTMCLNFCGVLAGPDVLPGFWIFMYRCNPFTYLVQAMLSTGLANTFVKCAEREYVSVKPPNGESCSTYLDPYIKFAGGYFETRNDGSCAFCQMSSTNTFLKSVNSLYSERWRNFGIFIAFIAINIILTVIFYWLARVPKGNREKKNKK
# [3] = target: Multidrug resistance protein CDR2 (Candida albicans (strain SC5314 / ATCC MYA-2876) (Yeast), UniProt P78595); assay: CaCDR2 efflux pump inhibitors in yeast, dose response, S. cerevisiae AD1-8u, singleplex, Cherry Pick1 hits (AID 588604); format: functional
# Chain of Multidrug resistance protein CDR2 (P78595 whole entry): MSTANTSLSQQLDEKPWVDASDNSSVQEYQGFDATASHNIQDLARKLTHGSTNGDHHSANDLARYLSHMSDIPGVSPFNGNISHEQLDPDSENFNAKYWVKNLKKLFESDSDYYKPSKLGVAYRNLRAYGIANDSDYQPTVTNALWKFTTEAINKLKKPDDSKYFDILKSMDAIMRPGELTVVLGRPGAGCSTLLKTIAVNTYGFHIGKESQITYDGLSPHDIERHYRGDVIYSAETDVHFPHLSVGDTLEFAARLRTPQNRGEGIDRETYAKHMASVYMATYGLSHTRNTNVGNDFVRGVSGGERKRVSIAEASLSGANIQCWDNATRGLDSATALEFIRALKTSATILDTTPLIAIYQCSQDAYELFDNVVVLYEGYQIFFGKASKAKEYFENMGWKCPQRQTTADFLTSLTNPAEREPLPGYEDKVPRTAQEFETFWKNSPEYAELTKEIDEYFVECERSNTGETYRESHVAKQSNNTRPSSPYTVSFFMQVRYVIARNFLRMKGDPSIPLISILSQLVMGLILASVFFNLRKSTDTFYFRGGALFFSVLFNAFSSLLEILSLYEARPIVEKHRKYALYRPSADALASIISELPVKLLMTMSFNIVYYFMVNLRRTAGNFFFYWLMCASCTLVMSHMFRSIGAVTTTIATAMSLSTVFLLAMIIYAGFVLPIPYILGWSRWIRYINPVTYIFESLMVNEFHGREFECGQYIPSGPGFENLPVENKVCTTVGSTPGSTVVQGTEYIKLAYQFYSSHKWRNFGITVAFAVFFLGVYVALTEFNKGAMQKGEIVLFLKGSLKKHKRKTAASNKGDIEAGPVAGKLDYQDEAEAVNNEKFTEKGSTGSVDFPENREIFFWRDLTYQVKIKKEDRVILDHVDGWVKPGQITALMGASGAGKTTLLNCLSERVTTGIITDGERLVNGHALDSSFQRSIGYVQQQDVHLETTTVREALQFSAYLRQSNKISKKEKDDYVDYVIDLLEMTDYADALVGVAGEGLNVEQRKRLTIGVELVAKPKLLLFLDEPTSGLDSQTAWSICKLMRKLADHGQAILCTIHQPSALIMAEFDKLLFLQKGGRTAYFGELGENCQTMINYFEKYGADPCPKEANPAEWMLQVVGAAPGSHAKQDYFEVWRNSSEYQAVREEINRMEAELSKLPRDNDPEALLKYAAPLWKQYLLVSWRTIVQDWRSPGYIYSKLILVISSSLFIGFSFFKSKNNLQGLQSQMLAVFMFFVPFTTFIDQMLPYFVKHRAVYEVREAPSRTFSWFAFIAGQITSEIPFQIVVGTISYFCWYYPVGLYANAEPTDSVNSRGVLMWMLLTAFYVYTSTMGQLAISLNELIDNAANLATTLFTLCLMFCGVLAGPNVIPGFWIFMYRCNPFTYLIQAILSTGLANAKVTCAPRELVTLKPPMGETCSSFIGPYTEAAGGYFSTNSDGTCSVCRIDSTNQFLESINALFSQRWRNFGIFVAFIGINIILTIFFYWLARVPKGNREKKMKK
# [4] = target: T1, Low molecular weight phosphotyrosine protein phosphatase (Homo sapiens, UniProt P24666); format: functional; details: read-out: IC50_Mean
# T1 sequence (P24666 whole entry): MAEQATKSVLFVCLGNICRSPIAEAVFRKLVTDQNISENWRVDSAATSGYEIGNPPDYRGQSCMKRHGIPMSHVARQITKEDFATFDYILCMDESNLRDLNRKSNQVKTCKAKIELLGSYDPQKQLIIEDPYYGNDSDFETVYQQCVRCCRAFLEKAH
# [5] = target: T1, Low molecular weight phosphotyrosine protein phosphatase; format: functional; details: read-out: IC50_Mean; remark: listed apart in the source
# Interleukin-8 [6] = target: T2, Interleukin-8 (Homo sapiens, UniProt P10145); assay: Dose Response confirmation of uHTS small molecule hits for cystic fibrosis induced NFkb Inhibitors in a TNFa-induced IL8 counterscreen.; format: functional; details: read-out: IC50_Mean
# T2 sequence (P10145 whole entry): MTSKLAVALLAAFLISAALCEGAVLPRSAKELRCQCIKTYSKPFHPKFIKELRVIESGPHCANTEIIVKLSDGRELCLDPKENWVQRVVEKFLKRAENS
# Interleukin-8 [7] = target: T2, Interleukin-8; assay: Dose Response confirmation of uHTS small molecule hits for cystic fibrosis induced NFkb Inhibitors in a PAF-induced IL8 counterscreen.; format: functional; details: read-out: IC50_Mean
# [8] = target: Ras and Rab interactor 1/Tyrosine-protein kinase ABL1 (Homo sapiens, UniProt P00519+Q13671); format: functional;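 note: biochemical TR-FRET dose-response test measuring inhibition of binding between Rin1 and Abl proteins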
# [9] = target: Mitochondrial peptide methionine sulfoxide reductase (Bos taurus, UniProt P54149); assay: Absorbance-based biochemical high throughput dose response assay for activators of Methionine sulfoxide reductase A (MsrA).; format: functional
# Chain of Mitochondrial peptide methionine sulfoxide reductase (P54149 whole entry, the tested form may be a part): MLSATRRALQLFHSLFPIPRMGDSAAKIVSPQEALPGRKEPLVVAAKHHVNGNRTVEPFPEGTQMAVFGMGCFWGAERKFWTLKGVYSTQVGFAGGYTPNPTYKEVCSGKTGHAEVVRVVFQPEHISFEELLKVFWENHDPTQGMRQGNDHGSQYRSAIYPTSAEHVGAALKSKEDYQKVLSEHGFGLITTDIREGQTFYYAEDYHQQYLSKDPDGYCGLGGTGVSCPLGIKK
# [10] = target: Photoreceptor-specific nuclear receptor (Homo sapiens, UniProt Q9Y5X4); format: functional, cell-based;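 note: CHO-S cells with Gal4-NCOR and VP16-NR2E3 two-hybrid luciferase reporter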
# Chain of Photoreceptor-specific nuclear receptor (Q9Y5X4 whole entry, the tested form may be a part): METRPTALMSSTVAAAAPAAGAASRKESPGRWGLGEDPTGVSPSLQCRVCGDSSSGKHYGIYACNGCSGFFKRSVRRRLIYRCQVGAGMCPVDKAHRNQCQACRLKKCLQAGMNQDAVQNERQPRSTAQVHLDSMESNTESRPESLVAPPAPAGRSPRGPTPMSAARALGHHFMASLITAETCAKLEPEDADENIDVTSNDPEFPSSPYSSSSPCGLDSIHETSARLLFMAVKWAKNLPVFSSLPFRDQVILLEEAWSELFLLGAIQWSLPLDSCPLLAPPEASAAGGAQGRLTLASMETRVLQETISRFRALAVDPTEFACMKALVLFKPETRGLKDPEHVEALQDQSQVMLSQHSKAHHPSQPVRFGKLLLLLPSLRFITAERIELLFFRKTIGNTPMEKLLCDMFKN
# Paired box protein Pax-8 = Paired box protein Pax-8 (Homo sapiens, UniProt Q06710); assay: inhibitors of PAX8-driven TPO luciferase reporter, dose response, RMG-I cells, cherry-pick (AID 687027); format: functional, cell-based;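 note: luciferase reporter driven by Pax8 target thyroperoxidase promoter measured by SteadyGlo luminescence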
# Chain of Paired box protein Pax-8 (Q06710 whole entry): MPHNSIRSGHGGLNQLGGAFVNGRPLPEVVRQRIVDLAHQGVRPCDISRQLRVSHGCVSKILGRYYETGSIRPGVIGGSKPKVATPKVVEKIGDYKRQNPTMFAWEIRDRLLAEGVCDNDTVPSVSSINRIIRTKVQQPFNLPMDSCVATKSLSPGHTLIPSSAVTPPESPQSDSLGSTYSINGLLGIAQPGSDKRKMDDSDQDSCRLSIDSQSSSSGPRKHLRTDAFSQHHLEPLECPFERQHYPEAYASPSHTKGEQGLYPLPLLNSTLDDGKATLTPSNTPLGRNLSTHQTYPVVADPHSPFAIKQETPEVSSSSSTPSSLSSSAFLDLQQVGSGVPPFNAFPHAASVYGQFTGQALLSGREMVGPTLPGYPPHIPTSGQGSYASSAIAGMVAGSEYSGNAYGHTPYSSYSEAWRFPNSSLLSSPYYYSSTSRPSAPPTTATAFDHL
# [11] = target: T3, Histone-lysine N-methyltransferase NSD2 (Homo sapiens, UniProt O96028); format: biochemical
# T3 sequence (O96028 whole entry): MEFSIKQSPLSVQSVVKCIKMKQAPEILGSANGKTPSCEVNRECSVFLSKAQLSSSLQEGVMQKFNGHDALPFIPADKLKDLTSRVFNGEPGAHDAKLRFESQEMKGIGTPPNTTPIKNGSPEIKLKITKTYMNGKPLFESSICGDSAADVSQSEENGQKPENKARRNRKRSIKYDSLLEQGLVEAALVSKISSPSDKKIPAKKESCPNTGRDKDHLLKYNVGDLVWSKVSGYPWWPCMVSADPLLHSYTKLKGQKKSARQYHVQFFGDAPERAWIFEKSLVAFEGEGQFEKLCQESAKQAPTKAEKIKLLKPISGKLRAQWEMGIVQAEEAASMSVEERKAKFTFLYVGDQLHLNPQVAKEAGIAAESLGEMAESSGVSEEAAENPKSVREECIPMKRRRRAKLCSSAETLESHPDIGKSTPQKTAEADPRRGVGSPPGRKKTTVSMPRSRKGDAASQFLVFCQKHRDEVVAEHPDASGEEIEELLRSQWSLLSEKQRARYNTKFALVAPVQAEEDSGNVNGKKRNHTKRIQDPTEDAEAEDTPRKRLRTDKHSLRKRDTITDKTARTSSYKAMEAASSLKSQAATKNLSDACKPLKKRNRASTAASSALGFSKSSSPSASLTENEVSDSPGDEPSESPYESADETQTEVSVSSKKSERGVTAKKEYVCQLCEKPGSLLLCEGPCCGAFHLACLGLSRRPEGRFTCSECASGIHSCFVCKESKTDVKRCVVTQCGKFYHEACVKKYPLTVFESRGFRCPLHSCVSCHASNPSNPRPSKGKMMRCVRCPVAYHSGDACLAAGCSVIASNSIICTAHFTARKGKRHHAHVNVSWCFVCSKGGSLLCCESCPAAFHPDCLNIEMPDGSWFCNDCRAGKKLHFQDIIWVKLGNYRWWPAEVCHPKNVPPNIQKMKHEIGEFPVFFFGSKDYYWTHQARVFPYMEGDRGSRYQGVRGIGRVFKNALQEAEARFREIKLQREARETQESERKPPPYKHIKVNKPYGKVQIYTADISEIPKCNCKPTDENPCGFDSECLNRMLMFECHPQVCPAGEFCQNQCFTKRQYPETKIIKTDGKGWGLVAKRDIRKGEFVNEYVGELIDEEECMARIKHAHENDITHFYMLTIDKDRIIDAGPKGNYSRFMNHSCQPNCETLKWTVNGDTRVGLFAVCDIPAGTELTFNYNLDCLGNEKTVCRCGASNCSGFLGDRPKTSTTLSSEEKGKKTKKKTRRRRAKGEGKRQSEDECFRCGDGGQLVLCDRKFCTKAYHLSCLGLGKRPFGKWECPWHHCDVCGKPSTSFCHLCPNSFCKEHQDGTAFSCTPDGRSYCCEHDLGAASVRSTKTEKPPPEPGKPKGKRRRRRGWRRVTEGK
# [12] = target: T4, Tyrosyl-DNA phosphodiesterase 2 (Homo sapiens, UniProt O95551); assay: human TDP2 enzyme inhibitors, dose response, biochemical, epi absorbance, IC50 (AID 743297)
# T4 sequence (O95551 whole entry): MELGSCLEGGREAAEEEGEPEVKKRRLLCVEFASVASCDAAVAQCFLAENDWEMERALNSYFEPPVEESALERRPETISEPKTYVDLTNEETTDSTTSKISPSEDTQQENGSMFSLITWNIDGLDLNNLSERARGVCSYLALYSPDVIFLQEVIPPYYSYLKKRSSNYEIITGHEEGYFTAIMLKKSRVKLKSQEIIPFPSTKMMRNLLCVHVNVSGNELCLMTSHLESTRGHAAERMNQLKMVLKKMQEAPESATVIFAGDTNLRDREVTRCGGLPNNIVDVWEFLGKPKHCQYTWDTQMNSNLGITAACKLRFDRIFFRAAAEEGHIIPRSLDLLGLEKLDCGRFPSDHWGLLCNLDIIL
# [13] = target: 1-phosphatidylinositol 4,5-bisphosphate phosphodiesterase gamma-1 (Homo sapiens, UniProt P19174); assay: Counterscreen for inhibitors of phospholipase C isozymes (PLC-B3): Fluorescence-based biochemical high throughput dose response assay to identify inhibitors of phospholipase C isozymes (PLC-gamma1).
# [14] = non-specific cell cytotoxicity, dose response, cytotoxicity control for PAX8 inhibitor project, plate reader, dry powder samples (AID 743021); format: functional, cell-based
# [15] = target: 1-phosphatidylinositol 4,5-bisphosphate phosphodiesterase beta-3 (Homo sapiens, UniProt Q01970); assay: Fluorescence-based biochemical high throughput dose response assay to identify inhibitors of phospholipase C isozymes (PLC-B3).
# [16] = target: RNA-editing ligase 1, mitochondrial (Trypanosoma brucei brucei, UniProt P86926); assay: TbREL1 ligase inhibitors, dose response, biochemical, fluorescence, Trypanosoma brucei (AID 1117295); format: functional
# [17] = ARNT/TACC3 interaction disruptors, potency, confirmation, biochemical, AlphaScreen, cherry-picked samples (AID 651703); format: functional, Homo sapiens;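 note: His-tagged ARNT PAS-B domain paired with GST-TACC3 E629A dimer coactivator fragment; potency of inhibitors that break up the complex and lower AlphaScreen signal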
# Chain of Benomyl/methotrexate resistance protein (P28873 whole entry): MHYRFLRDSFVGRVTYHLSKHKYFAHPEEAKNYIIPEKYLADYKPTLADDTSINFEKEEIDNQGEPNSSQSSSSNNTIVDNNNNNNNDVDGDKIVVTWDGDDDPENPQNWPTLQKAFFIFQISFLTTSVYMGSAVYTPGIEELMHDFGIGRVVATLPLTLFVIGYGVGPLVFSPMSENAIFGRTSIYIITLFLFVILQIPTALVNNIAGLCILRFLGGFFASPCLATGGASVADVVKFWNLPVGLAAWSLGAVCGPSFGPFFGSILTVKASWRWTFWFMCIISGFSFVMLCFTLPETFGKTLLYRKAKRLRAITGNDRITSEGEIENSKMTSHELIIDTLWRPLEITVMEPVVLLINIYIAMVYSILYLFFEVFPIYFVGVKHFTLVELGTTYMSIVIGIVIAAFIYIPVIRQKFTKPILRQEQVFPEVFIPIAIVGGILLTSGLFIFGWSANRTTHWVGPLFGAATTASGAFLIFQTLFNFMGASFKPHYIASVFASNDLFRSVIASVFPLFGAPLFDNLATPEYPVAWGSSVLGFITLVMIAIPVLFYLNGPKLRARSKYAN
compound,measurement,setting,value
COc1cc(OC)cc(-c2sc3ccc(OC)cc3c2-c2ccc(OCCN3CCCCC3)cc2)c1,EC50,[1],10.6 µM (active)
same,EC50,[2],10.7 µM (active)
same,EC50,[3],7.51 µM (active)
COCCNc1nc(NCc2cnc(C)cn2)c2sccc2n1,IC50,[4],20.4 µM (inactive)
same,IC50,[5],13.5 µM (active)
C=Cc1ccc(CC2(C)C(=O)Nc3ccc(-c4cccnc4)cc32)cc1 (stereo not drawn),IC50,Interleukin-8 [6],45.1 µM (inactive)
same,IC50,Interleukin-8 [7],25.5 µM (inactive)
O=C1C(=O)c2cccnc2-c2ncccc21,IC50,[8],6.59 µM (active)
same,EC50,[9],3.64 µM (active)
same,IC50,[10],12.1 µM (inactive)
same,AC50,Paired box protein Pax-8,3.32 µM (active)
same,AC50,[11],0.981 µM (active)
same,IC50,[12],12.5 µM (inactive)
same,IC50,[13],11.2 µM (inactive)
same,AC50,[14],8.53 µM (active)
same,IC50,[15],> 123 µM (inactive)
same,IC50,[16],3.51 µM (active)
CCOc1ccc(Nc2nc(N)nc(CN(C)C3CCCCC3)n2)cc1,AC50,[17],71.6 µM (active)
